# In the supplement of paper PMC10307832:
# Assays:
# Assay in all cases: relative viability (nuclei count vs DMSO), 5 days (fraction); higher = more cells survive
# TPCA-1 + Olaparib = compound: C1=CC(=CC=C1C2=CC(=C(S2)NC(=O)N)C(=O)N)F [TPCA-1] + O=C(c1cc(Cc2n[nH]c(=O)c3ccccc23)ccc1F)N1CCN(C(=O)C2CC2)CC1 [Olaparib] (partner 8 µM)
# Procedure, shortened: (§1)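 Each reported value is a median over duplicate plates. It expresses relative viability: treated-well nuclei count divided by vehicle-well nuclei count. Lung cancer cell lines in 1536-well plates were dosed by pin tool a day after seeding, alone with one drug or with a fixed anchor-drug dose plus five library-drug doses (not always all listed) in √10 steps, and nuclei were counted after 5 days.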
# [1] = compound: C1/C(=C\C2=CC=CS2)/C(=O)/C(=C/C3=CC=CS3)/C1 + CC(=O)Nc1cccc(-n2c(=O)n(C3CC3)c(=O)c3c(Nc4ccc(I)cc4F)n(C)c(=O)c(C)c32)c1 [Trametinib] (partner 0.02 µM)
# Procedure, shortened: as §1
# TPCA-1 + Pictilisib = compound: C1=CC(=CC=C1C2=CC(=C(S2)NC(=O)N)C(=O)N)F [TPCA-1] + CS(=O)(=O)N1CCN(Cc2cc3nc(-c4cccc5[nH]ncc45)nc(N4CCOCC4)c3s2)CC1 [Pictilisib] (partner 1 µM)
# Procedure, shortened: as §1
# [2] = compound: C1/C(=C\C2=CC=CS2)/C(=O)/C(=C/C3=CC=CS3)/C1 + C[C@@H](Oc1cc(-c2cnn(C3CCNCC3)c2)cnc1N)c1c(Cl)ccc(F)c1Cl [Crizotinib] (partner 1 µM)
# Procedure, shortened: as §1
Cell Line,relative viability (TPCA-1 + Olaparib; first compound 0.04 µM),relative viability (TPCA-1 + Olaparib; first compound 0.1265 µM),relative viability (TPCA-1 + Olaparib; first compound 0.4 µM),relative viability (TPCA-1 + Olaparib; first compound 1.265 µM),relative viability (TPCA-1 + Olaparib; first compound 4 µM),relative viability ([1]; first compound 0.2 µM),relative viability ([1]; first compound 0.6325 µM),relative viability ([1]; first compound 2 µM),relative viability ([1]; first compound 20 µM),relative viability (TPCA-1 + Pictilisib; first compound 0.04 µM),relative viability (TPCA-1 + Pictilisib; first compound 0.1265 µM),relative viability (TPCA-1 + Pictilisib; first compound 0.4 µM),relative viability (TPCA-1 + Pictilisib; first compound 1.265 µM),relative viability (TPCA-1 + Pictilisib; first compound 4 µM),relative viability ([2]; first compound 0.2 µM),relative viability ([2]; first compound 0.6325 µM),relative viability ([2]; first compound 2 µM),relative viability ([2]; first compound 6.325 µM),relative viability ([2]; first compound 20 µM),relative viability ([1]; first compound 6.325 µM)
NCI-H1944,0.482,0.424,0.436,0.425,0.336,0.393,0.421,0.424,0.388,0.384,0.326,0.343,0.312,0.258,1.18,1.12,1.09,1.01,0.977,–
NCI-H358,0.619,0.48,0.646,0.546,0.32,0.124,0.134,0.148,0.132,0.309,0.272,0.349,0.335,0.236,0.623,0.661,0.599,0.438,0.693,0.133
NCI-H1734,0.648,0.559,0.692,0.561,0.463,0.825,0.575,0.658,0.626,0.53,0.353,0.447,0.518,0.264,0.617,0.78,0.631,0.606,0.731,0.578
A-427,0.818,0.686,0.778,0.777,0.65,0.838,0.738,0.887,0.815,0.756,0.591,0.687,0.626,0.164,1.06,0.888,0.946,0.813,0.955,0.739
RERF-LC-KJ,0.952,0.857,0.884,0.911,0.78,0.924,0.879,0.846,0.739,0.533,0.493,0.561,0.44,0.466,0.794,0.843,0.832,0.763,0.754,0.741
NCI-H727,0.86,0.69,0.666,0.57,0.534,0.379,0.414,0.373,0.374,0.389,0.249,0.35,0.28,0.222,0.885,0.779,0.755,0.745,0.762,–
LCLC-97TM1,0.301,0.237,0.374,0.346,0.216,0.216,0.198,0.221,0.218,0.183,0.157,0.199,0.151,0.111,0.328,0.433,0.453,0.252,0.462,0.174
BEN,1.08,0.977,1.32,1.04,0.869,1.01,1.11,1.04,0.977,0.663,0.449,0.516,0.789,0.441,0.941,0.947,1.02,0.861,0.706,1.05
NCI-H2023,0.633,0.445,0.581,0.516,0.411,0.629,0.546,0.684,0.555,0.264,0.177,0.237,0.176,0.115,0.685,0.602,0.762,0.652,0.684,0.511
LC-2-ad,0.689,0.783,0.688,0.745,0.578,0.9,0.94,0.893,0.897,0.644,0.376,0.488,0.322,0.0862,0.488,0.503,0.454,0.368,0.484,0.781
NCI-H647,0.763,0.437,0.66,0.525,0.358,0.464,0.49,0.407,0.447,0.494,0.283,0.42,0.236,0.217,1.2,1.1,1.12,0.992,1,0.467
NCI-H1755,0.778,0.912,0.877,0.853,0.672,0.75,0.768,0.794,0.714,0.406,0.344,0.426,0.209,0.204,0.867,0.896,0.822,0.704,0.831,0.627
EPLC-272H,0.992,0.709,0.839,0.455,0.372,0.333,0.263,0.3,0.267,0.381,0.285,0.341,0.38,0.32,1,0.885,1.01,0.797,0.735,0.243
NCI-H1437,0.665,0.637,0.611,0.591,0.618,0.51,0.52,0.442,0.428,0.508,0.439,0.423,0.538,0.29,0.954,0.886,0.828,0.902,0.824,0.461
EKVX,0.963,–,0.837,0.568,0.727,0.415,0.307,0.368,0.295,0.405,0.343,0.512,0.374,0.43,1.01,0.982,0.922,0.929,0.926,–
NCI-H1651,0.192,0.177,0.185,0.171,0.134,0.861,0.775,0.816,0.843,0.637,0.487,0.561,0.657,0.436,0.863,0.876,0.893,0.816,0.855,0.807
